Test results taken from US20210401776A1, “METHOD OF TREATING […] SYNDROMES USING FENFLURAMINE ENANTIOMERS” (ZOGENIX INTERNATIONAL LIMITED, priority 2018, published 2021).
Entries after “also recorded” stand apart in the source; their conditions may differ.

Columns and labels:
[1] = test system: homozygous scn1Lab−/− mutants; test: zebrafish locomotor assay (total distance in large movements, lardist); type: in vivo, zebrafish (Danio rerio); conditions: scn1Lab−/− mutants, fixed concentration, FIG. 3
Text: (Baraban et al, 2013). Additional phenotypes of these mutants include: abnormal optokinetic response (OKR; 5 dpf); darkened pigmentation; death by 14 dpf; spontaneous seizure-like activity; abnormal (forebrain electrographic activity (3-7 dpf); seizure activity; lower levels of serotonin in scn1lab^−/− head homogenates at 7 dpf; zebrafish express orthologs of human serotonin (5HT) receptor subtypes at 5 dpf; nighttime hyperactivity (5 dpf); in open field-increased thigmotaxis. decreased movement (at 5 dpf); no differences in GABAergic neurons compared to wild type (5 dpf); 5-HT2a (hitr2aa/b) and S-HT2c; (htr2c11) orthologs expressed in larval heads in wild-type and scn1lab−/− mutants and in adult wild-type brains.
To assay the locomotor activity of homozygous scn1Lab−/− mutants and control WT scn1Lab+/+, zebrafish larvae were placed one larva per well in a 96-well plate in 100 μL of embryo medium from 4 to 8 days post-fertilization (dpf). Each day the larvae are tracked in an automated tracking device (ZebraBox™ apparatus; Viewpoint, Lyon, France) for 10 min after 30 min habituation (100-second integration interval). All recordings were performed at the same time during daytime period. The total distance in large movements was recorded and quantified using ZebraLab™ software (Viewpoint, Lyon, France). Data was pooled together from at least three independent experiments with at least 24 larvae per condition.
Scn1Lab^−/− mutants and WT scn1Lab+/+ larvae are arrayed in the same plate and treated at 6 days post fertilization (dpf) with the test compounds (25 μM), or VHC in individual wells of a 96-well plate. After incubation at 28° C. on a 14/10 hour light/dark cycle and 30-min chamber habituation 6 and 7 dpf larvae are tracked for locomotor activity for 10 min (100-second integration interval) under dark conditions. An incubation time of 1.5 hours is further referred to as short treatment (6 dpf). Furthermore, these larvae are analyzed after more than 22 hours incubation (7 dpf), i.e. long treatment. The total locomotor activity is quantified using the parameter lardist and plotted in cm. Data for each compound is pooled together from multiple independent experiments with at least 9 larvae per treatment condition.

[2] = test system: homozygous scn1Lab−/− mutants; test: epileptiform activity, open-field recordings in larval forebrain (LFP assay); type: in vivo, zebrafish (Danio rerio)
[3] = test system: WT scn1Lab+/+ zebrafish larvae; test: maximal tolerated concentration (MTC); type: in vivo, zebrafish (Danio rerio); conditions: no signs of toxicity in 12 out of 12 larvae within 48 hours of exposure
Protocol: To evaluate the maximal tolerated concentration (MTC) of each compound, 6 dpf-old WT scn1Lab+^+/+ zebrafish larvae were incubated in a 96-well plate (tissue culture plate, flat bottom, FALCON®, USA) with different concentrations of compound or VHC at 28° C. on a 14/10 hour light/dark cycle under standard aquaculture conditions (medium is replenished daily). Each larva was individually checked under the microscope during a period of 48 hours for the following signs of toxicity: decreased or no touch response upon a light touch of the tail, loss of posture, body deformation, edema, changes in heart rate or circulation and death. […] MTC was determined as 100 micromolar (μM) for (+)-fenfluramine and both norfenfluramine enantiomers. A MTC of 50 μM was determined for (−)-fenfluramine.

dizocilpine-treated mice [4] = test: spontaneous alternation in the Y-maze, dizocilpine-induced amnesia model; type: in vivo, Male Swiss OF-1 mice; conditions: Table 4 Y Maze
dizocilpine-treated mice [5] = test: step-through passive avoidance, dizocilpine-induced amnesia model; type: in vivo, Male Swiss OF-1 mice; conditions: Table 4 StepThrough/PassiveAvoidance
dizocilpine-treated mice [6] = test: dizocilpine-induced learning deficits, statements covering both tests (Y-maze and passive avoidance); type: in vivo, Male Swiss OF-1 mice
Protocol: Experiments were conducted to determine the dose-response effects of fenfluramine (FEN) and norfenfluramine (NOR), racemate and (+)- and (−)-isomers, in an in vivo mouse model; the dizocilpine-induced amnesia model (described below) is used to test responses to drugs acting at the sigma-1 receptor (S1R) (Maurice et al., 1994a,b; Maurice, et al., 1998, Neuroscience 83:413-428).
The drugs were administered intraperitoneally (“ip” or “IP”) with dizocilpine (0.15 mg/kg) and tested in the spontaneous alternation test on day 1 and in the passive avoidance test on days 2-3.
The apparatus consisted of a 2-compartment box, with one illuminated with white polyvinylchloride (PVC) walls and a transparent cover (15×20×15 cm high), one with black polyvinylchloride walls and cover (15×20×15 cm high), and a grid floor. A guillotine door separated each compartment. A 60 W lamp was positioned 40 cm above the apparatus lit the white compartment during the experimental period. Scrambled foot shocks (0.3 mA for 3 s) were delivered to the grid floor using a shock generator scrambler (Lafayette Instruments, Lafayette, Mass., USA). The guillotine door was initially closed during the training session. Each mouse was placed into the white compartment. After 5 s, the door was raised. When the mouse entered the darkened compartment and placed all its paws on the grid floor, the door was gently closed and the 3-scrambled foot shock was delivered for 3 s. The step-through latency, i.e., the latency spent to enter the dark compartment, and the level of sensitivity to the shock were recorded. The latter was evaluated as: 0=no sign; 1=flinching reactions; 2=flinching and vocalization reactions. The retention test was carried out 24 h after training. Each mouse was placed again into the white compartment. After 5 s, the door was raised. The step-through latency was recorded up to 300 s. Animals entered the darkened compartment or were gently pushed into it and the escape latency, i.e., the time spent to return into the white compartment, was also measured up to 300 s. Results were expressed as median and interquartile (25%-75%) range.
The Y-maze is made of grey PVC. Each arm is 40 cm long, 13 cm high, 3 cm wide at the bottom, 10 cm wide at the top, and converged at an equal angle. Each mouse was placed at the end of one arm and allowed to move freely through the maze during an 8-min session. The series of arm entries, including possible returns into the same arm, were checked visually. An alternation was defined as entries into all three arms on consecutive occasions. The number of maximum alternations was therefore the total number of arm entries minus two and the percentage of alternation was calculated as: actual alternations/maximum alternations)×100. Parameters included the percentage of alternation (memory index) and total number of arm entries (exploration index).

[7] = in vivo; cited from earlier work

CCN[C@H](C)Cc1cccc(C(F)(F)F)c1 [(−)-Fenfluramine, (2R)-N-ethyl-1-[3-(trifluoromethyl)phenyl]propan-2-amine]
reduction in seizure behavior [1]: 41%
anti-epileptiform activity (frequency and cumulative duration of epileptiform events over 10 minutes) ([2]; 50 micromolar, FIGS. 4 and 5): comparable
LFP Assay ([2]; Table 1, 25, 59 and 100 μM, oral via embryo medium): Also reduces spikes but less; also recorded: Normal dose-response; higher
maximum tolerated concentration (MTC) [3]: 50 µM
PP (%) (dizocilpine-treated mice [4]; drug alone 0.3 mg/kg IP): 3.2 ± 8.1%
PP (%) (dizocilpine-treated mice [4]; drug alone 1 mg/kg IP): 13.8 ± 10.5 ^2%
PP (%) (dizocilpine-treated mice [5]; drug alone 0.3 mg/kg IP): 3.9 ± 8.4%
PP (%) (dizocilpine-treated mice [5]; drug alone 1 mg/kg IP): 7.3 ± 13.8 ^4%
effect on PRE-084 efficacy (dizocilpine-treated mice [6]; 1 mg/kg on effective doses of PRE-084 (0.3-1 mg/kg), FIG. 10 (e, f)): without effect on PRE-084 efficacy
effect on PRE-084 efficacy (dizocilpine-treated mice [6]; combined with PRE-084 in dizocilpine-treated mice): without any effect on PRE-084 efficacy
behavior as S1R antagonist (dizocilpine-treated mice [6]; mouse, in vivo): does not behave as a S1R antagonist
mean elimination half-life [7]: 25 h
